Measurements as given in US10035800B2 (AbbVie Inc., priority 2013, dated 2018).

Legend:
BRD4 (BDI_K57-E168) = molecular target: T1, BRD4 (BDI_K57-E168) (Homo sapiens, UniProt O60885); assay: TR-FRET bromodomain binding assay, first bromodomain of BRD4; conditions: 100 nM probe
T1 construct: BD1: amino acids K57-E168; made in house
Method in brief: (§1)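 Displacement of a fluorescent Alexa647 BET-inhibitor probe (100 nM with BDI, 30 nM with BDII) from His-tagged BRD4 bromodomains was monitored by europium TR-FRET after one hour at room temperature. Data were normalized to no-compound and 1 μM unlabelled probe controls, fitted with a four-parameter logistic, and IC50s converted to Ki.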

BRD4 (BDII_E352-M457) = molecular target: T2, BRD4 (BDII_E352-M457) (Homo sapiens, UniProt O60885); assay: TR-FRET bromodomain binding assay, second bromodomain of BRD4; conditions: 30 nM probe
T2 construct: protocol; made in house
Method in brief: as §1

[1] = system: breast cancer cell line MX-1; assay: MX-1 cell line proliferation assay; type: cell-based; conditions: MX-1 cells, 3-day proliferation assay, Cell Titer Glo; read-out: Cellular proliferation: EC50
Experimental: MX-1 Cell Line Proliferation Assay
The impact of compounds of the Examples on cancer cell proliferation was determined using the breast cancer cell line MX-1 (ATCC) in a 3-day proliferation assay and the data are reported in Table 1. MX-1 cells were maintained in RPMI 1640 medium (Sigma) supplemented with 10% FBS at 37 C.° and an atmosphere of 5% CO2. For compound testing, MX-1 cells were plated in 96-well black bottom plates at a density of 5000 cells/well in 90 μL of culture media and incubated at 37° overnight to allow cell adhesion and spreading. Compound dilution series were prepared in DMSO via a 3-fold serial dilution from 3 mM to 0.1 μM. The DMSO dilution series were then diluted 1:100 in phosphate buffered saline, and 10 μL of the resulted solution were added to the appropriate wells of the MX-1 cell plate. The final compound concentrations in the wells were 3, 1, 0.3, 0.1, 0.03, 0.01, 0.003, 0.001, 0.0003, and 0.0001 μM or 1, 0.3, 0.1, 0.03, 0.01, 0.003, 0.001, 0.0003, 0.0001, and 0.00003 μM.
Luminescence readings from the Cell Titer Glo assay were normalized to the DMSO treated cells and analyzed using the GraphPad Prism software with sigmoidal curve fitting to obtain EC50s. The minimum significant ratio (MSR) was determined to evaluate assay reproducibility (Eastwood et al., (2006) J Biomol Screen, 11: 253-261). The overall MSR was determined to be 2.1 and a moving MSR (last six run MSR overtime) has been <2.

[2] = TR-FRET assay protocol E (compound 9.19 μM-150 pM)
[3] = TR-FRET assay protocol G (compound 0.92 μM-15 pM)

Cn1cc2c3c(c[nH]c3c1=O)CN(CC1CCN(C(=O)OC(C)(C)C)C1)c1ccc(CS(C)(=O)=O)cc1-2 (racemic) [Example 25, tert-butyl 3-((10-methyl-7-((methylsulfonyl)methyl)-11-oxo-10,11-dihydro-1H-1,4,10-triazadibenzo[cd,f]azulen-4(3H)-yl)methyl)pyrrolidine-1-carboxylate]
Ki (BRD4 (BDI_K57-E168); [2]): 1.74 nM | Ki (BRD4 (BDII_E352-M457); [2]): 0.847 nM | EC50 [1]: 8.7 nM

CCOC(=O)C1c2c[nH]c3c(=O)n(C)cc(c23)-c2cc(CS(C)(=O)=O)ccc2N1c1ccc(F)cc1 (racemic) [Example 34, ethyl 4-(4-fluorophenyl)-10-methyl-7-((methylsulfonyl)methyl)-11-oxo-3,4,10,11-tetrahydro-1H-1,4,10-triazadibenzo[cd,f]azulene-3-carboxylate]
Ki (BRD4 (BDI_K57-E168); [3]): 2.45 nM | Ki (BRD4 (BDII_E352-M457); [3]): 3.89 nM | EC50 [1]: 14.7 nM

Cn1cc2c3c(c[nH]c3c1=O)C(C(=O)NCc1ccccc1)N(c1ccc(F)cc1F)c1ccc(CS(C)(=O)=O)cc1-2 (racemic) [Example 159, N-benzyl-4-(2,4-difluorophenyl)-10-methyl-7-((methylsulfonyl)methyl)-11-oxo-3,4,10,11-tetrahydro-1H-1,4,10-triazadibenzo[cd,f]azulene-3-carboxamide]
Ki (BRD4 (BDI_K57-E168); [3]): 38.6 nM | Ki (BRD4 (BDII_E352-M457); [3]): 19.8 nM | EC50 [1]: 57.8 nM

CN(C)CCCC1c2c[nH]c3c(=O)n(C)cc(c23)-c2cc(CS(C)(=O)=O)ccc2N1c1ccc(F)cc1F (racemic) [Example 175, 4-(2,4-difluorophenyl)-3-(3-(dimethylamino)propyl)-10-methyl-7-((methylsulfonyl)methyl)-3,4-dihydro-1H-1,4,10-triazadibenzo[cd,f]azulen-11(10H)-one]
Ki (BRD4 (BDI_K57-E168); [3]): 15 nM | Ki (BRD4 (BDII_E352-M457); [3]): 1.9 nM | EC50 [1]: 99.9 nM

COc1cccc(OC)c1C1c2c[nH]c3c(=O)n(C)cc(c23)-c2cc(CS(C)(=O)=O)ccc2N1c1ccc(F)cc1F (racemic) [Example 221, 4-(2,4-difluorophenyl)-3-(2,6-dimethoxyphenyl)-10-methyl-7-((methylsulfonyl)methyl)-3,4-dihydro-1H-1,4,10-triazadibenzo[cd,f]azulen-11(10H)-one]
Ki (BRD4 (BDI_K57-E168); [3]): 31.6 nM | Ki (BRD4 (BDII_E352-M457); [3]): 12.3 nM | EC50 [1]: 33 nM

Cn1cc2c3c(c[nH]c3c1=O)C(CCN1C(=O)c3ccccc3C1=O)N(c1ccc(F)cc1F)c1ccc(CS(C)(=O)=O)cc1-2 (racemic) [Example 227, 2-(2-(4-(2,4-difluorophenyl)-10-methyl-7-((methylsulfonyl)methyl)-11-oxo-3,4,10,11-tetrahydro-1H-1,4,10-triazadibenzo[cd,f]azulen-3-yl)ethyl)isoindoline-1,3-dione]
Ki (BRD4 (BDI_K57-E168); [3]): 7.94 nM | Ki (BRD4 (BDII_E352-M457); [3]): 1.18 nM | EC50 [1]: 134 nM

Cn1cc2c3c(c[nH]c3c1=O)C(CCNC(=O)OCc1ccccc1)N(c1ccc(F)cc1F)c1ccc(CS(C)(=O)=O)cc1-2 (racemic) [Example 229, benzyl (2-(4-(2,4-difluorophenyl)-10-methyl-7-((methylsulfonyl)methyl)-11-oxo-3,4,10,11-tetrahydro-1H-1,4,10-triazadibenzo[cd,f]azulen-3-yl)ethyl)carbamate]
Ki (BRD4 (BDI_K57-E168); [3]): 4.11 nM | Ki (BRD4 (BDII_E352-M457); [3]): 1.96 nM | EC50 [1]: 41.2 nM

Cn1cc2c3c(c[nH]c3c1=O)C(c1ccc(-n3ccnc3)cc1)N(c1ccc(F)cc1F)c1ccc(CS(C)(=O)=O)cc1-2 (racemic) [Example 234, 3-(4-(1H-imidazol-1-yl)phenyl)-4-(2,4-difluorophenyl)-10-methyl-7-((methylsulfonyl)methyl)-3,4-dihydro-1H-1,4,10-triazadibenzo[cd,f]azulen-11(10H)-one]
Ki (BRD4 (BDI_K57-E168); [3]): 10.3 nM | Ki (BRD4 (BDII_E352-M457); [3]): 9.4 nM | EC50 [1]: > 1000 nM

Cn1cc2c3c(c[nH]c3c1=O)C(c1ccc(C#N)cc1)N(c1ccc(F)cc1F)c1ccc(CS(C)(=O)=O)cc1-2 (racemic) [Example 235, 4-(4-(2,4-difluorophenyl)-10-methyl-7-((methylsulfonyl)methyl)-11-oxo-3,4,10,11-tetrahydro-1H-1,4,10-triazadibenzo[cd,f]azulen-3-yl)benzonitrile]
Ki (BRD4 (BDI_K57-E168); [3]): 16.1 nM | Ki (BRD4 (BDII_E352-M457); [3]): 6.51 nM | EC50 [1]: 162 nM

Cn1cc2c3c(c[nH]c3c1=O)C(c1cccc(-c3ccccn3)c1)N(c1ccc(F)cc1F)c1ccc(CS(C)(=O)=O)cc1-2 (racemic) [Example 236, 4-(2,4-difluorophenyl)-10-methyl-7-((methylsulfonyl)methyl)-3-(3-(pyridin-2-yl)phenyl)-3,4-dihydro-1H-1,4,10-triazadibenzo[cd,f]azulen-11(10H)-one]
Ki (BRD4 (BDI_K57-E168); [3]): 85.9 nM | Ki (BRD4 (BDII_E352-M457); [3]): 30 nM | EC50 [1]: > 1000 nM

Cn1cc2c3c(c[nH]c3c1=O)C(CCCOc1ccccc1)N(c1ccc(F)cc1F)c1ccc(CS(C)(=O)=O)cc1-2 (single isomer, unassigned) [Example 144]
Ki (BRD4 (BDI_K57-E168); [3]): > 238 nM | Ki (BRD4 (BDII_E352-M457); [3]): 18.8 nM | EC50 [1]: 318 nM

Cn1cc2c3c(c[nH]c3c1=O)[C@@H](c1ccccc1)N(c1ccc(F)cc1F)c1ccc(CS(C)(=O)=O)cc1-2 (single isomer, unassigned) [Example 215]
Ki (BRD4 (BDI_K57-E168); [3]): 65.7 nM | Ki (BRD4 (BDII_E352-M457); [3]): 5.87 nM | EC50 [1]: 454 nM

Cn1cc2c3c(c[nH]c3c1=O)C(Cn1ccccc1=O)N(c1ccc(F)cc1F)c1ccc(CS(C)(=O)=O)cc1-2 (single isomer, unassigned) [Example 252]
Ki (BRD4 (BDI_K57-E168); [3]): 16.1 nM | Ki (BRD4 (BDII_E352-M457); [3]): 2.24 nM | EC50 [1]: 108 nM

CCS(=O)(=O)c1ccc2c(c1)-c1cn(C)c(=O)c3[nH]cc(c13)CN2CC1CC1 [Example 2, 4-(cyclopropylmethyl)-7-(ethylsulfonyl)-10-methyl-3,4-dihydro-1H-1,4,10-triazadibenzo[cd,f]azulen-11(10H)-one]
Ki (BRD4 (BDI_K57-E168); [2]): 24.6 nM | Ki (BRD4 (BDII_E352-M457); [2]): 8.36 nM | EC50 [1]: 19.2 nM

CCC1c2c[nH]c3c(=O)n(C)cc(c23)-c2cc(S(=O)(=O)CC)ccc2N1CC1CC1 (stereo not drawn) [Example 3, 4-(cyclopropylmethyl)-3-ethyl-7-(ethylsulfonyl)-10-methyl-3,4-dihydro-1H-1,4,10-triazadibenzo[cd,f]azulen-11(10H)-one]
Ki (BRD4 (BDI_K57-E168); [2]): 46 nM | Ki (BRD4 (BDII_E352-M457); [2]): 8.91 nM | EC50 [1]: 48.7 nM

Cn1cc2c3c(c[nH]c3c1=O)CN(CC1CC1)c1ncc(S(N)(=O)=O)cc1-2 [Example 10, 4-(cyclopropylmethyl)-10-methyl-11-oxo-3,4,10,11-tetrahydro-1H-1,4,5,10-tetraazadibenzo[cd,f]azulene-7-sulfonamide]
Ki (BRD4 (BDI_K57-E168); [2]): 6.94 nM | Ki (BRD4 (BDII_E352-M457); [2]): 5.99 nM | EC50 [1]: 60.8 nM

Cc1cnc2c(c1)-c1cn(C)c(=O)c3[nH]cc(c13)CN2c1ccc(F)cc1 [Example 11, 4-(4-fluorophenyl)-7,10-dimethyl-3,4-dihydro-1H-1,4,5,10-tetraazadibenzo[cd,f]azulen-11(10H)-one]
Ki (BRD4 (BDI_K57-E168); [3]): 1.61 nM | Ki (BRD4 (BDII_E352-M457); [3]): 2.57 nM | EC50 [1]: 1.64 nM

Cn1cc2c3c(c[nH]c3c1=O)CN(CC1CC1)c1ccccc1-2 [Example 13, 4-(cyclopropylmethyl)-10-methyl-3,4-dihydro-1H-1,4,10-triazadibenzo[cd,f]azulen-11(10H)-one]
Ki (BRD4 (BDI_K57-E168); [3]): 4.84 nM | Ki (BRD4 (BDII_E352-M457); [3]): 7.68 nM | EC50 [1]: 7.26 nM

COC(=O)CCC1c2c[nH]c3c(=O)n(C)cc(c23)-c2cc(CS(C)(=O)=O)ccc2N1CC1CC1 (stereo not drawn) [Example 14, methyl 3-(4-(cyclopropylmethyl)-10-methyl-7-((methylsulfonyl)methyl)-11-oxo-3,4,10,11-tetrahydro-1H-1,4,10-triazadibenzo[cd,f]azulen-3-yl)propanoate]
Ki (BRD4 (BDI_K57-E168); [2]): 6.9 nM | Ki (BRD4 (BDII_E352-M457); [2]): 0.882 nM | EC50 [1]: 14.6 nM

Cn1cc2c3c(c[nH]c3c1=O)C(Cc1ccccc1)Nc1ccc(CS(C)(=O)=O)cc1-2 (stereo not drawn) [Example 16, 3-benzyl-10-methyl-7-((methylsulfonyl)methyl)-3,4-dihydro-1H-1,4,10-triazadibenzo[cd,f]azulen-11(10H)-one]
Ki (BRD4 (BDI_K57-E168); [2]): 92.6 nM | Ki (BRD4 (BDII_E352-M457); [2]): 18.9 nM | EC50 [1]: 337 nM

Cn1cc2c3c(c[nH]c3c1=O)C(CCc1ccccc1)Nc1ccc(CS(C)(=O)=O)cc1-2 (stereo not drawn) [Example 18, 10-methyl-7-((methylsulfonyl)methyl)-3-phenethyl-3,4-dihydro-1H-1,4,10-triazadibenzo[cd,f]azulen-11(10H)-one]
Ki (BRD4 (BDI_K57-E168); [2]): 145 nM | Ki (BRD4 (BDII_E352-M457); [2]): 24.1 nM | EC50 [1]: 343 nM

Cn1cc2c3c(c[nH]c3c1=O)CN(c1ccc(F)cc1)c1ncc(N)cc1-2 [Example 21, 7-amino-4-(4-fluorophenyl)-10-methyl-3,4-dihydro-1H-1,4,5,10-tetraazadibenzo[cd,f]azulen-11(10H)-one]
Ki (BRD4 (BDI_K57-E168); [3]): 4.43 nM | Ki (BRD4 (BDII_E352-M457); [3]): 3 nM | EC50 [1]: 1.05 nM
